In patent US20150089682A1, “ALS Inhibitor Herbicide Tolerant B. Napus Mutants” (priority 2012, published 2015):

How the values were obtained:
[1] = target: T1, mixture of P197S and W574L ALS enzymes (Arabidopsis thaliana, UniProt P17597); type: biochemical; conditions: for Resistance Factor P197S & W574L: relative to WT, calculated
T1 construct: crude E. coli extract was used
Description: (§1) Assays were initiated by adding enzyme and terminated after 75 min incubation at 30° C. by the addition to 40 μl 0.5 M H2SO4. […] Reaction velocities were tiffed to the Michalis-Menten equation with the XLFit curve fitting program.
(§2) To characterize the response of a mixture of two different ALS enzymes to a given ALS inhibitor the following assumptions were made: • a inhibition is competitive and reversible • b. in the absence of inhibitor, equal activities of the ALS (mutant) enzymes 1 and 2 are present
(§3) Using experimentally determined pI50-values for various ALS-inhibiting herbicides, enzyme activities at different inhibitor concentrations were calculated (see Theory) for each ALS enzyme. Total ALS activity at any given inhibitor concentration is the sum of the activity of (mutant) enzyme 1 and (mutant) enzyme 2. If the experimentally determined pI50-value was <4, pI50=3.0 was used for the calculations. If the calculated pI50-value was 3.0, the pI50 was redefined as <4.

[2] = target: T2, mixture of S653N and W574L ALS enzymes (Arabidopsis thaliana, UniProt P17597); type: biochemical; conditions: for Resistance Factor S653N & W574L: relative to WT, calculated
T2 construct: crude E. coli extract was used
Description: as §1, §2, §3

[3] = target: T3, Arabidopsis thaliana P197S-mutant ALS (Arabidopsis thaliana, UniProt P17597, E575Q/P197S); assay: biochemical; conditions: for Resistance Factor P197S: relative to WT, from measured pI50
T3 construct: vector-encoded N-terminal fusion of pET-32a(+) (Trx/His/S tag by own knowledge); made in house; host or cells: Escherichia coli AD494
Description: (§4) Bacteria were grown at 37° C. in LB-medium containing 100 mg/1 carbenicillin and 25 mg/1 canamycin, induced with 1 mM isopropyl-β-D-thiogalactopyranoside at an OD600 of 0.6, cultivated for 16 hours at 18° C. and harvested by centrifugation. Bacterial pellets were resusupended in 100 mM sodium phosphate buffer pH 7.0 containing 0.1 mM thiamine-pyrophosphate, 1 mM MgCl2, and 1 μM FAD at a concentration of 1 gram wet weight per 25 ml of buffer and disrupted by sonification. The crude protein extract obtained after centrifugation was used for ALS activity measurements.
as §1

[4] = target: T4, Arabidopsis thaliana S653N-mutant ALS (Arabidopsis thaliana, UniProt P17597, E575Q/S653N); assay: biochemical
T4 construct: vector-encoded N-terminal fusion of pET-32a(+) (Trx/His/S tag by own knowledge); made in house; host or cells: Escherichia coli AD494
Description: as §4, §1

[5] = target: T5, Arabidopsis thaliana W574L-mutant ALS (Arabidopsis thaliana, UniProt P17597, E575Q/W574L); assay: biochemical; conditions: for Resistance Factor W574L: relative to WT, from measured pI50
T5 construct: vector-encoded N-terminal fusion of pET-32a(+) (Trx/His/S tag by own knowledge); made in house; host or cells: Escherichia coli AD494
Description: as §4, §1

[6] = target: T6, Arabidopsis thaliana wild-type ALS (Arabidopsis thaliana, UniProt P17597, E575Q); assay: biochemical; conditions: measured; crude extract of E. coli expressed enzyme; read-out: pI50 WT (converted)
T6 construct: vector-encoded N-terminal fusion of pET-32a(+) (Trx/His/S tag by own knowledge); made in house; host or cells: Escherichia coli AD494
Description: as §4, §1

[7] = test system: ALS enzyme in leaves of wild-type Brassica lines; assay: ALS enzyme activity in leaves; type: biochemical, Brassica napus; conditions: wild-type leaves (row IV) compared with mutant lines (rows I-III), FIG. 3
Description: (§5) The inhibitory effect of ALS inhibiting herbicides on ALS enzymes encoded by the different mutant AHAS alleles was tested in leaf material essentially as described by Shimizu et al, 2008, Plant Physiol. 147:1976.

[8] = test system: ALS enzymes in leaves of Brassica lines homozygous for HETO108, HETO121 or both; assay: ALS enzyme activity in leaves; type: biochemical, Brassica napus; conditions: FIG. 3
Description: as §5

[9] = test system: spring oilseed rape homozygous for HETO108 and HETO121; assay: Herbicide tolerance in the field, visible phytotoxicity; type: in vivo, Brassica napus; conditions: HETO108-HETO121, field, 18 days after application, 0%=no phytotoxic effects, 100%=all plants killed
Excerpt: (§6) Seeds of spring oilseed rape homozygous for HETO108 and HETO121 were sown in a field according to typical practical agricultural methods. The registered spring oilseed rape variety ABILITY served as a comparison. All plants were cultivated up to BBCH stage 14 (four true leaves of the oilseed rape plants). Afterwards, the herbicides mentioned in table 2 have been applied to the oilseed rape plants by using specific spray equipment for small plot applications. The water amount used was 200 L/ha.

[10] = test system: spring oilseed rape variety ABILITY; assay: as above; type: in vivo, Brassica napus; conditions: ABILITY, field, 18 days after application, 0%=no phytotoxic effects, 100%=all plants killed
Excerpt: as §6

[11] = Kinetic parameters of enzymatic activity of AHAS mutants; type: biochemical, Arabidopsis thaliana; conditions: pyruvate varied 0-120 mM
Description: as §4, with “The coding sequences of the Arabidopsis thaliana wild-type and P197S-, W574L-, and S653N-mutant ALS genes were cloned into Novagen pET-32a(+) vectors and the vectors transformed into Escherichia coli AD494 according to the instructions of the manufacturer. Bacteria were” for “Bacteria were”
ALS assays were carried out in 96-well microtiter plates using a modification of the procedure described by Ray (1984), Plant Physiol 75:827-831. The reation mixture contained 20 mM potassium phosphate buffer pH 7.0, 20 mM sodium pyruvate, 0.45 mM thiamine-pyrophosphate, 0.45 mM MgCl2, 9 μM FAD, ALS enzyme and various concentrations of ALS inhibitors in a final volume of 90 μl. Assays were initiated by adding enzyme and terminated after 75 min incubation at 30° C. by the addition to 40 μl 0.5 M H2SO4. […] The pI50 values measured for the different mutant AHAS proteins and calculated for the mixtures of two different AHAS enzymes are shown in Table 3. […] Reaction velocities were tiffed to the Michalis-Menten equation with the XLFit curve fitting program.

[12] = calculated for a mixture of equal activities of the two enzymes, pI50=3.0 used where measured <4
[13] = Brassica napus, topical, 432 h, AI dose rate 50 gai/ha, read-out: % phytotox

Question: Which “pI50 P197S & W574L” value [1, 12] does the source give for COc1cc(OC)nc(NC(=O)NS(=O)(=O)c2cc(NC=O)ccc2C(=O)N(C)C)n1 [Foramsulfuron, foramsulfuron] here?
Answer: The value was 5.6.

Question: What about the “Resistance Factor P197S & W574L” value [1] of the same molecule?
Answer: The value was 398.

Question: What about the “pI50 S653N & W574L” value [2, 12] of the same molecule?
Answer: Its value is 5.7.

Question: And the “Resistance Factor S653N & W574L” value [2]?
Answer: The value was 316.

Question: What about the IC50 ([3]; measured, crude extract of E. coli expressed enzyme, read-out: pI50 P197S (converted)) of the same molecule?
Answer: The IC50 was 100 nM.

Question: And the “Resistance Factor P197S” value [3]?
Answer: Its value is 16.

Question: And the IC50 ([4]; measured, crude extract of E. coli expressed enzyme, read-out: pI50 S653N (converted))?
Answer: Its IC50 is 63.1 nM.

Question: And the “Resistance Factor S653N” value ([4]; relative to WT, from measured pI50)?
Answer: The value was 10.

Question: And the IC50 ([5]; measured, crude extract of E. coli expressed enzyme, read-out: pI50 W574L (converted))?
Answer: Its IC50 is 50100 nM.

Question: What about the “Resistance Factor W574L” value [5] of the same molecule?
Answer: Its value is 7943.

Question: And the IC50 [6]?
Answer: The IC50 was 6.31 nM.

Question: What about the “inhibition of ALS enzyme activity in leaves” value [7] of the same molecule?
Answer: Its value is “inhibited at lower concentrations of the herbicides than in leaves comprising the mutant AHAS alleles”.

Question: And the “tolerance of ALS activity in leaves by mutation” value ([8]; P197S (row II) compared with W574L (row III) and both (row I))?
Answer: The value was “the tolerance in lines with the P197S mutation (row II) is lower than the tolerance in lines with the W574L mutation (row III) and with both the P197S and W574L mutation (row I)”.

Question: What about the pest or weed control at 50 g/ha [9, 13] of the same molecule?
Answer: Its pest or weed control at 50 g/ha is 28%.

Question: What about the pest or weed control at 50 g/ha [10, 13] of the same molecule?
Answer: Its pest or weed control at 50 g/ha is 99%.

Question: Which “Resistance Factor P197S & W574L” value [1] does the source give for COC(=O)c1csc(C)c1S(=O)(=O)NC(=O)n1nc(OC)n(C)c1=O [Thiencarbazone-methyl, thiencarbazone-methyl] here?
Answer: The value was 1259.

Question: What about the “Resistance Factor S653N & W574L” value [2] of the same molecule?
Answer: Its value is 316.

Question: And the “Resistance Factor P197S” value [3]?
Answer: Its value is 1259.

Question: What about the “Resistance Factor W574L” value [5] of the same molecule?
Answer: The value was 1259.

Question: What about the “inhibition of ALS enzyme activity in leaves” value [7] of the same molecule?
Answer: The value was “inhibited at lower concentrations of the herbicides than in leaves comprising the mutant AHAS alleles”.

Question: And the “herbicide tolerance of ALS activity in leaves, TCM compared with FS” value ([8]; mutant lines (rows I-III))?
Answer: Its value is “the herbicide tolerance is higher for TCM than for FS”.

Question: What about the “% phytotox” value ([9]; AI dose rate 30 gai/ha) of the same molecule?
Answer: The value was 3%.

Question: What about the “% phytotox” value ([10]; AI dose rate 30 gai/ha) of the same molecule?
Answer: Its value is 100%.

B1: P197S: Arabidopsis thaliana P197S-mutant ALS expressed in Escherichia coli, crude protein extract (protein, UniProt P17597 56-670, looked up, variant P197S)
Acetolactate synthase, …: SSSPSSISAVLNTTTNVTTTPSPTKPTKPETFISRFAPDQPRKGADILVEALERQGVETVFAYPGGASMEIHQALTRSSSIRNVLPRHEQGGVFAAEGYARSSGKPGICIATSGPGATNLVSGLADALLDSVPLVAITGQVSRRMIGTDAFQETPIVEVTRSITKHNYLVMDVEDIPRIIEEAFFLATSGRPGPVLVDVPKDIQQQLAIPNWEQAMRLPGYMSRMPKPPEDSHLEQIVRLISESKKPVLYVGGGCLNSSDELGRFVELTGIPVASTLMGLGSYPCDDELSLHMLGMHGTVYANYAVEHSDLLLAFGVRFDDRVTGKLEAFASRAKIVHIDIDSAEIGKNKTPHVSVCGDVKLALQGMNKVLENRAEELKLDFGVWRNELNVQKQKFPLSFKTFGEAIPPQYAIKVLDELTDGKAIISTGVGQHQMWAAQFYNYKKPRQWLSSGGLGAMGFGLPAAIGASVANPDAIVVDIDGDGSFIMNVQELATIRVENLPVKVLLLNNQHLGMVMQWEDRFYKANRAHTFLGDPAQEDEIFPNMLLFAAACGIPAARVTKKADLREAIQTMLDTPGPYLLDVICPHQEHVLPMIPSGGTFNDVITEGDGRIKY
Question: Which results are given for B1?
Answer: Km [11]: 5.5 ± 0.8 mM; Vmax [11]: 50.0 ± 6.1 ΔE/min mg

B2: W574L: Arabidopsis thaliana W574L-mutant ALS expressed in Escherichia coli, crude protein extract (protein, UniProt P17597 56-670, looked up, variant W574L)
Acetolactate synthase, …: SSSPSSISAVLNTTTNVTTTPSPTKPTKPETFISRFAPDQPRKGADILVEALERQGVETVFAYPGGASMEIHQALTRSSSIRNVLPRHEQGGVFAAEGYARSSGKPGICIATSGPGATNLVSGLADALLDSVPLVAITGQVPRRMIGTDAFQETPIVEVTRSITKHNYLVMDVEDIPRIIEEAFFLATSGRPGPVLVDVPKDIQQQLAIPNWEQAMRLPGYMSRMPKPPEDSHLEQIVRLISESKKPVLYVGGGCLNSSDELGRFVELTGIPVASTLMGLGSYPCDDELSLHMLGMHGTVYANYAVEHSDLLLAFGVRFDDRVTGKLEAFASRAKIVHIDIDSAEIGKNKTPHVSVCGDVKLALQGMNKVLENRAEELKLDFGVWRNELNVQKQKFPLSFKTFGEAIPPQYAIKVLDELTDGKAIISTGVGQHQMWAAQFYNYKKPRQWLSSGGLGAMGFGLPAAIGASVANPDAIVVDIDGDGSFIMNVQELATIRVENLPVKVLLLNNQHLGMVMQLEDRFYKANRAHTFLGDPAQEDEIFPNMLLFAAACGIPAARVTKKADLREAIQTMLDTPGPYLLDVICPHQEHVLPMIPSGGTFNDVITEGDGRIKY
Question: What does the source list for B2?
Answer: Km [11]: 6.9 ± 0.2 mM; Vmax [11]: 54.4 ± 2.8 ΔE/min mg

B3: S653N: Arabidopsis thaliana S653N-mutant ALS expressed in Escherichia coli, crude protein extract (protein, UniProt P17597 56-670, looked up, variant S653N)
Acetolactate synthase, …: SSSPSSISAVLNTTTNVTTTPSPTKPTKPETFISRFAPDQPRKGADILVEALERQGVETVFAYPGGASMEIHQALTRSSSIRNVLPRHEQGGVFAAEGYARSSGKPGICIATSGPGATNLVSGLADALLDSVPLVAITGQVPRRMIGTDAFQETPIVEVTRSITKHNYLVMDVEDIPRIIEEAFFLATSGRPGPVLVDVPKDIQQQLAIPNWEQAMRLPGYMSRMPKPPEDSHLEQIVRLISESKKPVLYVGGGCLNSSDELGRFVELTGIPVASTLMGLGSYPCDDELSLHMLGMHGTVYANYAVEHSDLLLAFGVRFDDRVTGKLEAFASRAKIVHIDIDSAEIGKNKTPHVSVCGDVKLALQGMNKVLENRAEELKLDFGVWRNELNVQKQKFPLSFKTFGEAIPPQYAIKVLDELTDGKAIISTGVGQHQMWAAQFYNYKKPRQWLSSGGLGAMGFGLPAAIGASVANPDAIVVDIDGDGSFIMNVQELATIRVENLPVKVLLLNNQHLGMVMQWEDRFYKANRAHTFLGDPAQEDEIFPNMLLFAAACGIPAARVTKKADLREAIQTMLDTPGPYLLDVICPHQEHVLPMIPNGGTFNDVITEGDGRIKY
Question: What does the source list for B3?
Answer: Km [11]: 5.8 ± 0.4 mM; Vmax [11]: 32.0 ± 1.4 ΔE/min mg
